As a reminder, the IC50 is the concentration needed to halve the response being measured. Low readings indicate greater potency in that assay, high ones weaker potency in that assay.

T1 sequence (P00742 235-488 limits assumed): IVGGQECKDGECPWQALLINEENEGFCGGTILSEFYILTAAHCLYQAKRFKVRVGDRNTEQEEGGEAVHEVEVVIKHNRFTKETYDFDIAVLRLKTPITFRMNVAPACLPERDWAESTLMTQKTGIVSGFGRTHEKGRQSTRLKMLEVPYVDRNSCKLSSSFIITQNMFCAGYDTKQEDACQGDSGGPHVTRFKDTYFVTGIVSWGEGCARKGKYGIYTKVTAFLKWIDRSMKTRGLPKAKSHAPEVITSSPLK
T1 sequence (P00742 41-179 partner limits assumed): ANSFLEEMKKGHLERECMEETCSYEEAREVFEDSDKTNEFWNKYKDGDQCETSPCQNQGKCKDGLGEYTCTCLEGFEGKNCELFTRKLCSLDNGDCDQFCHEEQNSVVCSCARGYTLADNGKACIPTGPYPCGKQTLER

This test addresses T1, human plasma protein factor Xa (Homo sapiens, UniProt P00742).
T1 construct: measure proteolytic activity of the enzyme (factor Xa); purchased Haematologic Technologies (Essex Junction, Vt.); host or cells: human plasma
Nature of the test: Factor Xa IC50 determination: cleavage of paranitroanilide substrate S-2765 in 96-well plates. The format is biochemical. As to conditions: fXa 1 nM, S-2765 100 μM, Tris buffered saline pH 7.4, room temperature. An excerpt: This example illustrates methods for evaluating the compounds of the invention, along with results obtained for such assays. The in vitro and in vivo Factor Xa isoform activities of the inventive compounds can be determined by various procedures known in the art, such as a test for their ability to inhibit the activity of the Factor Xa isoform. […] The IC50 value is the concentration (in nM) of the compound required to provide 50% inhibition of Factor Xa isoform.
An in vitro assay for detecting and measuring inhibition activity against Factor Xa is as follows:
The substrate S-2765 (Z-D-Arg-Gly-Arg-pNA.HCl) was obtained from Diapharma (West Chester, Ohio).
The human plasma protein factor Xa was purchased from Haematologic Technologies (Essex Junction, Vt.).
All assays, which are performed in 96-well microtiter plates, measure proteolytic activity of the enzyme (factor Xa) by following cleavage of paranitroanilide substrate. The assay buffer used for proteolytic assays was Tris buffered saline (20 mM Tris, 150 mM NaCl, 5 mM CaCl2, 0.1% Bovine serum albumin (BSA), 5% Dimethly Sulfoxide (DMSO) pH 7.4). In a 96-well microtiter plate, inhibitor was serially diluted to give a range of concentrations from 0.01 nM to 10 μM (final). Duplicate sets of wells were assayed and control wells without inhibitor were included. Enzyme was added to each well, (fXa concentration=1 nM), the plate was shaken for 5 seconds and then incubated for 5 minutes at room temperature. S2765 was added (100 μM final) and the plate was shaken for 5 seconds (final liquid volume in each well was 200 μl). The degree of substrate hydrolysis was measured at 405 nm on a Thermomax plate reader (Molecular Devices, Sunnyvale, Calif.) for 2 minutes. The initial velocities (mOD/min), for each range of inhibitor concentrations, were fitted to a four parameter equation using Softmax data analysis software. The parameter C, derived from the resulting curve-fit, corresponded to the concentration for half maximal inhibition (IC50).
With `CCN(C)C(=N)c1ccc(-c2cc(CNC(=O)c3ccc(Cl)s3)on2)cc1` [Example 28, 5-Chloro-thiophene-2-carboxylic acid {3-[4-(N-ethyl-N-methyl-carbamimidoyl)-phenyl]-isoxazol-5-ylmethyl}-amide], the IC50 is ≤ 0.1 µM. In the case of `CCCN(C)C(=N)c1ccc(-c2cc(CNC(=O)c3ccc(Cl)s3)on2)cc1` [Example 29, 5-Chloro-thiophene-2-carboxylic acid {3-[4-(N-methyl-N-propyl-carbamimidoyl)-phenyl]-isoxazol-5-ylmethyl}-amide] it was ≤ 0.1 µM. Turning to `CN(C)CCN(C)C(=N)c1ccc(-c2cc(CNC(=O)c3ccc(Cl)s3)on2)cc1` [Example 30, 5-Chloro-thiophene-2-carboxylic acid (3-{4-[N-(2-dimethylamino-ethyl)-N-methyl-carbamimidoyl]-phenyl}-isoxazol-5-ylmethyl)-amide], the IC50 is ≤ 0.1 µM. The same measure for `CN(Cc1ccco1)C(=N)c1ccc(-c2cc(CNC(=O)c3ccc(Cl)s3)on2)cc1` [Example 31, 5-Chloro-thiophene-2-carboxylic acid {3-[4-(N-furan-2-ylmethyl-N-methyl-carbamimidoyl)-phenyl]-isoxazol-5-ylmethyl}-amide]: ≤ 0.1 µM. The same measure for `COCCN(C)C(=N)c1ccc(-c2cc(CNC(=O)c3ccc(Cl)s3)on2)cc1` [Example 32, 5-Chloro-thiophene-2-carboxylic acid (3-{4-[N-(2-methoxy-ethyl)-N-methyl-carbamimidoyl]-phenyl}-isoxazol-5-ylmethyl)-amide]: ≤ 0.1 µM. Compound `C#CCN(C)C(=N)c1ccc(-c2cc(CNC(=O)c3ccc(Cl)s3)on2)cc1` [Example 33, 5-Chloro-thiophene-2-carboxylic acid {3-[4-(N-methyl-N-prop-2-ynyl-carbamimidoyl)-phenyl]-isoxazol-5-ylmethyl}-amide] showed a half-inhibitory concentration (IC50) of 0.1 to 0.5 µM. As for `CNC(=N)c1ccc(-c2cc(CNC(=O)c3ccc(Cl)s3)on2)cc1` [Example 34, 5-Chloro-thiophene-2-carboxylic acid {3-[4-(N-methylcarbamimidoyl)-phenyl]-isoxazol-5-ylmethyl}-amide], the IC50 was ≥ 0.5 µM. In the case of `CN(C)C(=N)c1ccc(-c2cc(CN(C)C(=O)c3ccc(Cl)s3)on2)cc1` [Example 35, 5-Chloro-thiophene-2-carboxylic acid {3-[4-(N,N-dimethyl-carbamimidoyl)-phenyl]-isoxazol-5-ylmethyl}-methyl-amide] it was ≥ 0.5 µM; in that of `CN(Cc1cc(-c2ccc(C3=NCCN3C)cc2)no1)C(=O)c1ccc(Cl)s1` [Example 36, 5-Chloro-thiophene-2-carboxylic acid methyl-{3-[4-(1-methyl-4,5-dihydro-1H-imidazol-2-yl)-phenyl]-isoxazol-5-ylmethyl}-amide], ≥ 0.5 µM. In the case of `CN(Cc1cc(-c2ccc(C(=N)N3CCCC3)cc2)no1)C(=O)c1ccc(Cl)s1` [Example 37, 5-Chloro-thiophene-2-carboxylic acid {3-[4-(imino-pyrrolidin-1-yl-methyl)-phenyl]-isoxazol-5-ylmethyl}-methyl-amide] it was ≥ 0.5 µM; in that of `CN(Cc1cc(-c2ccc(C(=N)N3CCCCC3)cc2)no1)C(=O)c1ccc(Cl)s1` [Example 38, 5-Chloro-thiophene-2-carboxylic acid {3-[4-(imino-piperidin-1-yl-methyl)-phenyl]-isoxazol-5-ylmethyl}-methyl-amide], ≥ 0.5 µM; in that of `CCOC(=O)C1CCN(C(=N)c2ccc(-c3cc(CN(C)C(=O)c4ccc(Cl)s4)on3)cc2)CC1` [Example 39, 1-{[4-(5-{[(5-Chloro-thiophene-2-carbonyl)-methyl-amino]-methyl}-isoxazol-3-yl)-phenyl]-imino-methyl}-piperidine-4-carboxylic acid ethyl ester], ≥ 0.5 µM. In the case of `CN(Cc1cc(-c2ccc(C(=N)N3CCC3)cc2)no1)C(=O)c1ccc(Cl)s1` [Example 40, 5-Chloro-thiophene-2-carboxylic acid {3-[4-(azetidin-1-yl-imino-methyl)-phenyl]-isoxazol-5-ylmethyl}-methyl-amide], the half-maximal inhibitory concentration (IC50) is ≥ 0.5 µM. For `CN(Cc1cc(-c2ccc(C(N3CCC3)=[N+]3CCC3)cc2)no1)C(=O)c1ccc(Cl)s1` [Example 41, 5-Chloro-thiophene-2-carboxylic acid {3-[4-(azetidin-1-yl-azetidin-1-ylidene-methyl)-phenyl]-isoxazol-5-ylmethyl}-methyl-amide], the half-inhibitory concentration (IC50) is ≥ 0.5 µM. In the case of `CCN(C)C(=N)c1ccc(-c2cc(CN(C)C(=O)c3ccc(Cl)s3)on2)cc1` [Example 42, 5-Chloro-thiophene-2-carboxylic acid {3-[4-(N-ethyl-N-methyl-carbamimidoyl)-phenyl]-isoxazol-5-ylmethyl}-methyl-amide] it was ≥ 0.5 µM; in that of `CCCN(C)C(=N)c1ccc(-c2cc(CN(C)C(=O)c3ccc(Cl)s3)on2)cc1` [Example 43, 5-Chloro-thiophene-2-carboxylic acid methyl-{3-[4-(N-methyl-N-propyl-carbamimidoyl)-phenyl]-isoxazol-5-ylmethyl}-amide], ≥ 0.5 µM. Consider `CN(C)CCN(C)C(=N)c1ccc(-c2cc(CN(C)C(=O)c3ccc(Cl)s3)on2)cc1` [Example 44, 5-Chloro-thiophene-2-carboxylic acid (3-{4-[N-(2-dimethylamino-ethyl)-N-methyl-carbamimidoyl]-phenyl}-isoxazol-5-ylmethyl)-methyl-amide], for which the 50% inhibitory concentration (IC50) was ≥ 0.5 µM. In the case of `CN(Cc1cc(-c2ccc(C(=N)N3CCC(C(N)=O)CC3)cc2)no1)C(=O)c1ccc(Cl)s1` [Example 45, 1-{[4-(5-{[(5-Chloro-thiophene-2-carbonyl)-methyl-amino]-methyl}-isoxazol-3-yl)-phenyl]-imino-methyl}-piperidine-4-carboxylic acid amide] it was ≥ 0.5 µM; in that of `COCCN(C)C(=N)c1ccc(-c2cc(CN(C)C(=O)c3ccc(Cl)s3)on2)cc1` [Example 46, 5-Chloro-thiophene-2-carboxylic acid (3-{4-[N-(2-methoxy-ethyl)-N-methyl-carbamimidoyl]-phenyl}-isoxazol-5-ylmethyl)-methyl-amide], ≥ 0.5 µM; in that of `C#CCN(C)C(=N)c1ccc(-c2cc(CN(C)C(=O)c3ccc(Cl)s3)on2)cc1` [Example 47, 5-Chloro-thiophene-2-carboxylic acid methyl-{3-[4-(N-methyl-N-prop-2-ynyl-carbamimidoyl)-phenyl]-isoxazol-5-ylmethyl}-amide], ≥ 0.5 µM.

With `CNC(=N)c1ccc(-c2cc(CN(C)C(=O)c3ccc(Cl)s3)on2)cc1` [Example 48, 5-Chloro-thiophene-2-carboxylic acid methyl-{3-[4-(N-methylcarbamimidoyl)-phenyl]-isoxazol-5-ylmethyl}-amide], the half-inhibitory concentration (IC50) was ≤ 0.1 µM. In the case of `C[C@@H](NC(=O)c1ccc(Cl)s1)c1cc(-c2ccc(C(=N)N(C)C)cc2)no1` [Example 49, (R)-5-Chloro-thiophene-2-carboxylic acid (1-{3-[4-(N,N-dimethyl-carbamimidoyl)-phenyl]-isoxazol-5-yl}-ethyl)-amide] it was ≤ 0.1 µM. The same measure for `C[C@@H](NC(=O)c1ccc(Cl)s1)c1cc(-c2ccc(C3=NCCN3C)cc2)no1` [Example 50, (R)-5-Chloro-thiophene-2-carboxylic acid (1-{3-[4-(1-methyl-4,5-dihydro-1H-imidazol-2-yl)-phenyl]-isoxazol-5-yl}-ethyl)-amide]: ≤ 0.1 µM; for `C[C@@H](NC(=O)c1ccc(Cl)s1)c1cc(-c2ccc(C(=N)N3CCCC3)cc2)no1` [Example 51, (R)-5-Chloro-thiophene-2-carboxylic acid (1-{3-[4-(imino-pyrrolidin-1-yl-methyl)-phenyl]-isoxazol-5-yl}-ethyl)-amide]: ≤ 0.1 µM.

With `C[C@@H](NC(=O)c1ccc(Cl)s1)c1cc(-c2ccc(C(=N)N3CCCCC3)cc2)no1` [Example 52, (R)-5-Chloro-thiophene-2-carboxylic acid (1-{3-[4-(imino-piperidin-1-yl-methyl)-phenyl]-isoxazol-5-yl}-ethyl)-amide], the IC50 is ≥ 0.5 µM. In the case of `C[C@H](NC(=O)c1ccc(Cl)s1)c1cc(-c2ccc(C3=NCCN3C)cc2)no1` [Example 54, (S)-5-Chloro-thiophene-2-carboxylic acid (1-{3-[4-(1-methyl-4,5-dihydro-1H-imidazol-2-yl)-phenyl]-isoxazol-5-yl}-ethyl)-amide] it was ≥ 0.5 µM.

Consider `C[C@H](NC(=O)c1ccc(Cl)s1)c1cc(-c2ccc(C(=N)N3CCCC3)cc2)no1` [Example 55, (S)-5-Chloro-thiophene-2-carboxylic acid (1-{3-[4-(imino-pyrrolidin-1-yl-methyl)-phenyl]-isoxazol-5-yl}-ethyl)-amide], for which the IC50 is ≥ 0.5 µM.

The values are drawn from patent publication US8377974B2 (Millennium Pharmaceuticals, Inc., priority 2004, dated 2013).
